Results taken from US12319694B2, “Heterocyclic nitrogen-containing purine derivatives, pharmaceutical preparations containing these derivatives and their use in neuroprotection” (UNIVERZITA PALACKEHO, priority 2019, dated 2025).

Tests used:
[1] = system: SH-SY5Y human neuroblastoma cell line (differentiated phenotype); experiment: Calcein AM viability test on ATRA-differentiated SH-SY5Y cells; assay type: cell-based; details: 24 h, DMSO control = 100%
Procedure: (§1) The SH-SY5Y human neuroblastoma cell line obtained as kind gift from Walter d'Acunto (originally purchased from ATCC—American Type Culture Collection (Manassas, VA, USA) was cultivated in Dulbecco's modified Eagle's Medium and Ham's F12 Nutrient Mixture (DMEM:F-12, 1:1), supplemented with 10% fetal bovine serum (FBS) and 1% penicillin and streptomycin at 37° C. in a humidified atmosphere 5% CO2, 95% air in passage limit up to ATCC+15. The assay was performed in 96-well microplate with 7000 SH-SY5Y cells per well. Next day, SH-SY5Y underwent all-trans retinoic acid (ATRA)-differentiation for 48 h (ATRA 10 μM). After 48 h, old DMEM/F12 media was removed by fresh media containing tested compounds at 0.1, 1 and 10 μM concentrations for 24 h. The tested compounds were dissolved in DMSO were added into the medium. The maximum concentration of DMSO in media was kept below 0.1% (v/v). The cell viability was measured by Calcein AM (1 mg/ml ThermoFisher) viability assay. Solution of Calcein AM in PBS (0.5 uM) was pipetted to cells and incubated for 50 minutes. After that the fluorescence was measured at 488/517 nm (excitation/emission) using microplate reader Infinite M200 (TECAN). Calcein AM assay is based on the dye-intracellular-esterase cleavage of non-fluorescent dye (Calcein AM) by living cells to fluorescent dye (Calcein), while dyeing cells that lose such ability. The values in Table 4 show % of viability, relative to control of all tested compounds. The control (medium with DMSO, <0.1% (v/v)) was postulated as 100% viability (see the first line of the table).

[2] = system: SH-SY5Y human neuroblastoma cell line (differentiated phenotype); experiment: Viability test, salsolinol-induced model of Parkinson's disease in differentiated SH-SY5Y (Calcein AM); assay type: cell-based; details: 24 h
Procedure: as §1
Similarly, to the previous test the assay was performed in 96-well microplates with 7000 SH-SY5Y cells per well. Day after the seeding of cells, SH-SY5Y underwent all-trans retinoic acid (ATRA)-differentiation for 48 h (ATRA 10 μM). After 48 h, old DMEM/F12 media was removed by fresh media containing 500 μM dopaminergic neurotoxin Salsolinol (SAL) without or with tested compounds at 0.1, 1 and 10 μM concentrations. […] After 24 h the cell viability was measured by Calcein AM viability assay.

[3] = Radical scavenging activity by ORAC assay; details: NAUC relative to trolox; mean ± SD (n = 3)
Procedure: The ability of compounds to scavenge free radicals in vitro was determined by Oxygen Radical Absorbance Capacity (ORAC) method. In brief, fluorescein (100 μL, […]) and 25 μL of tested compound solution were added into each working well in a 96-well microplate preincubated at 37° C. Thereafter, 25 μL of 250 mM 2,2′-azobis(2-amidino-propan)dihydrochloride (AAPH) was quickly added, microplate was shaken for 5 s and the fluorescence (Ex. 485 nm, Em. 510 nm) was read every 3 min over 90 min by using microplate reader Infinite 200 (TECAN, Switzerland). The NAUC value (Net Area Under Curve) was used to express antioxidant activity relative to trolox (hydrophilic equivalent of vitamin E postulated as a standard). Substances with an ORAC value greater than 0 actively trap free radicals.

Nrf2 = experiment: Activation of Nrf2-dependent expression, EpRE-LUX reporter cell line; assay type: cell-based; details: 24 h; tested at 100, 10, 1 and 0.1 μM, concentration of the printed value not stated; mean ± SD (n = 3)
Procedure: The ability of compounds to activate Nrf2-dependent expression was determined by EpRE-LUX reporter cell line. In brief, compounds at 100, 10, 1 and 0.1 μM concentrations of the tested compounds were incubated for 24 h with the cells. After cells lysis (10 mM Tris, 2 mM DTT), a buffer containing 0.2 mM luciferin was added to start luminescent reaction. The increase in luminescence was measured with microplate reader Infinite M200 (TECAN). Compounds with Nrf2 value higher than 0 are strong Nrf2 activators and thus will be useful agents for the treatment of neurodegenerative diseases associated with oxidative stress.

[4] = system: SH-SY5Y human neuroblastoma cell line; experiment: Oxidative stress measurement (dihydroethidium, superoxide) in SH-SY5Y, salsolinol-induced model of PD; assay type: cell-based; details: 6 h
Procedure: The assay was performed in 96-well microplate with 7000 cells/well. Next day, SH-SY5Y underwent differentiation protocol for 48 h see above. Treatment procedure remained the same as in previous section (Cell treatment and viability/cytotoxicity assays). Additionally, oxidative stress (OS) inducers such as 6-hydroxydopamine (6-OHDA) and glutamate (Glu) alone were used as […]. Negative controls determined threshold of excessive OS. […] After 30 minutes, DHE was read at 500 nm/580 nm (excitation/emission). DHE is cell permeable dye which is selective toward superoxide radical detection.

[5] = 0.1 μM compound with 500 μM Salsolinol
[6] = 1 μM compound with 500 μM Salsolinol
[7] = 10 μM compound with 500 μM Salsolinol

COc1cccc(Cn2cnc3c(N4CCCC4)nc(N4CCCC4)nc32)c1 [Compound 42]
% of viability, relative to control ([1]; 0.1 μM compound): 112.01%
% of viability, relative to control ([1]; 1 μM compound): 127.94%
% of viability, relative to control ([1]; 10 μM compound): 138.52%
Neuroprotective effect (% of control) [2, 5]: 6.86 % of control
Neuroprotective effect (% of control) [2, 6]: 15.44 % of control
Neuroprotective effect (% of control) [2, 7]: 20.05 % of control
ORAC (compound/trolox) [3]: 0.029 ± 0.002 compound/trolox
Nrf2 (relative luminiscence) (Nrf2): 0.00 ± 0.00 relative luminiscence
Oxidative stress (% of control) ([4]; 1 μM compound with SAL 500 μM): 171.55 % of control
Oxidative stress (% of control) ([4]; 10 μM compound with SAL 500 μM): 173.94 % of control

c1ccc(Cn2cnc3c(N4CCC4)nc(N4CCC4)nc32)cc1 [Compound 1]
% of viability, relative to control ([1]; 0.1 μM compound): 104.80%
% of viability, relative to control ([1]; 1 μM compound): 114.03%
% of viability, relative to control ([1]; 10 μM compound): 145.94%
Neuroprotective effect (% of control) [2, 5]: N/A (N/A = no protection)
Neuroprotective effect (% of control) [2, 6]: 3.03 % of control
Neuroprotective effect (% of control) [2, 7]: 26.08 % of control
ORAC (compound/trolox) [3]: 0.052 ± 0.002 compound/trolox
Nrf2 (relative luminiscence) (Nrf2): 0.27 ± 0.06 relative luminiscence
Oxidative stress (% of control) ([4]; 1 μM compound with SAL 500 μM): 124.48 % of control
Oxidative stress (% of control) ([4]; 10 μM compound with SAL 500 μM): 157.22 % of control

COc1ccccc1Cn1cnc2c(N3CCCC3)nc(N3CCCC3)nc21 [Compound 35]
% of viability, relative to control ([1]; 0.1 μM compound): 104.22%
% of viability, relative to control ([1]; 1 μM compound): 118.77%
% of viability, relative to control ([1]; 10 μM compound): 135.02%
Neuroprotective effect (% of control) [2, 5]: 1.19 % of control
Neuroprotective effect (% of control) [2, 6]: 13.01 % of control
Neuroprotective effect (% of control) [2, 7]: 19.11 % of control
ORAC (compound/trolox) [3]: 0.033 ± 0.001 compound/trolox
Nrf2 (relative luminiscence) (Nrf2): 0.04 ± 0.00 relative luminiscence
Oxidative stress (% of control) ([4]; 1 μM compound with SAL 500 μM): 161.97 % of control
Oxidative stress (% of control) ([4]; 10 μM compound with SAL 500 μM): 214.57 % of control
